From publication PMC9421656, “Beyond Retigabine: Design, Synthesis, and Pharmacological Characterization of a Potent and Chemically Stable Neuronal Kv7 Channel Activator with Anticonvulsant Activity” (Journal of Medicinal Chemistry, 2022)
Several values for one entry are separate records, joined by “and”; a condition that tells them apart may be missing. Equal entries are not always repeated.

Key:
[1] = target: Kv7.2/Kv7.3 channels (Homo sapiens, UniProt O43525+O43526); experiment: FluxOR thallium-sensitive fluorescence-based assay in CHO cells stably expressing Kv7.2 + Kv7.3; type: cell-based; parameters: expressed in transfected cells; conditions: 10 μM; for Kv7 opening activity (in words): compared with retigabine or the reference compound of the subseries; for Slope of the fluorescent signal at 10 μM: initial slope of FluxOR signal between 5 and 15 s, mean ± SEM
Experimental: While assay robustness in Kv7.2/Kv7.3-expressing cells was high (Z′ factor > 0.5),[27] the Z′ factor calculated in CHO cells expressing Kv7.2 subunits alone was <0.5; thus, all subsequent pharmacological screens were performed in Kv7.2/Kv7.3-expressing cells. […] The Kv7.2/Kv7.3-stable cell line was generated using a plasmid-based PiggyBac transposon system that enables genomic integration of multiple independent transposons containing distinct cDNA sequences. cDNAs for KCNQ2 and KCNQ3 genes (encoding for Kv7.2 and Kv7.3, respectively) were cloned into two different PiggyBac expression vectors (pB-CMV-MCS-EF1α-RedPuro, System Biosciences), and these two plasmids, together with a plasmid encoding for the transposase (System Biosciences), were transfected into CHO cells using Lipofectamine 2000 (Invitrogen) as indicated in the protocol provided by the seller company.
The selected clone stably expressing Kv7.2/Kv7.3 channels was grown in DMEM supplemented with 10% FBS, 50 U/mL Pen-Strep, 2 mM L-glutamine (all purchased from Gibco), and 4 μg/mL puromycin (Sigma) in a humidified atmosphere at 37 °C with 5% CO2. […] A kinetic dispense microplate reader (FLUOstar Optima) was used to read the plate, setting the excitation filter at 485 nm and the emission filter at 520 nm; “Stimulus buffer” prepared as indicated in the protocol was automatically added to wells after 5 s of recording; the plate was read every 1 s, for 50 s. The results were analyzed using Optima Data Analysis and Microsoft Excel.
Only experiments resulting in a Z′ > 0.5 were considered. Data shown (Figures 1D,E,F,G and 3B) were obtained from at least three independent experiments.
Data were analyzed using the GraphPad Prism 8.0.2 (GraphPad Software, LaJolla, CA). Statistically significant differences in the initial slope of the curves were evaluated through ordinary one-way ANOVA, and multiple comparisons were corrected with the Tukey test. […] Indicated EC50 values are the mean of at least three independent experiments ± standard error of the mean (SEM).

[2] = Photostability under UV-visible light with HPLC analysis (degradation, dimer formation); type: physicochemical; conditions: for % Degradation (3h, UV): 10 μM, buffered aqueous solution pH 7.4, 3 h UV-visible light, ± SD; for Dimers Formation / Photodegradation (in words): 3 h UV-visible light; for Dimers Formation: HPLC at 550 nm; for Photodegradation (in words): compared with retigabine
From the text: Two different HPLC wavelengths were utilized: (a) […] to evaluate the decreased concentration of the starting molecule; (b) 550 nm to investigate the formation of phenazine/phenazinium dimers, as previously described.[10] Unfortunately, dimer formation was detected for all tested compounds, except for 23 and 24. […]. […]. The first group consisted of N4 (−X- in Table 2) substituted analogues, in which the tertiary amine is unavailable for the formation of phenazine dimers (compounds 25–28). […]. The third group included derivatives replacing hydrogen atoms with electron-withdrawing fluorine atoms at position R2 of the benzene-1,2,4-triamine core scaffold (compounds 59, 60), a strategy likely reducing the reactivity of N2 and N4. […].
Photostability experiments were performed by dissolving compounds in DMSO and then diluting in buffered aqueous solutions at pH 7.4 to a final concentration of 10 μM. 1 cm quartz cells, filled with the abovementioned solutions, were irradiated by a UV lamp (UV Consulting TQ 150 equipped with Duran 50 sleeve and 150 W power supply unit, Peschl, Germany) at a fixed distance of 20 cm from the UV source. Control samples were maintained at 37 °C, wrapped with aluminum foil to avoid light exposure, and used to assess chemical stability of the compounds. At predetermined intervals, aliquots were withdrawn and analyzed by UHPLC in order to assess the concentration decrease of the starting materials and the presence of the dimers usually formed by retigabine.
Photostability and chemical stability experiments were carried out on a Kinetex^TM C18 150 × 2.1 mm × 2.6 μm (100 Å) column (Phenomenex, Bologna, Italy). The optimal mobile phase consisted of 0.1% TFA/H2O v/v (A) and 0.1% TFA/ACN v/v (B). Analysis was performed in gradient elution as follows: 0–13.0 min, 5–65% B; 13–14.0 min, 65–95% B; 14–15.0 min, isocratic to 95% B; 15–15.01 min, 95–5% B; then 3 min for column re-equilibration. The flow rate was 0.5 mL min^–1. The column oven temperature was set to 45 °C. The injection volume was 7 μL of sample. The following PDA parameters were applied: sampling rate, 12.5 Hz; detector time constant, 0.160 s; cell temperature, 40 °C. Data acquisition was set in the range 190–800 nm, and chromatograms were monitored at 224 nm to assess the decrease in concentration of the starting material, while a wavelength of 550 nm was used to eventually detect dimerization.

Row | Compound | Kv7 opening activity (in words) [1] | Slope of the fluorescent signal at 10 μM [1] | % Degradation (3h, UV) [2] | Dimers Formation [2] | Photodegradation (in words) [2]
1 | CCCCCCC(=O)Nc1ccc(NCc2ccc(C(F)(F)F)cc2)cc1 [compound 2, N-(4-((4-(Trifluoromethyl)benzyl)amino)phenyl)heptanamide] | still active although with slightly lower efficacy | 0.0326±0.0063 |  |  | 
2 | CCCCCCCCCC(=O)Nc1ccc(NCc2ccc(C(F)(F)F)cc2)cc1N [compound 15, N-(2-Amino-4-((4-(trifluoromethyl)benzyl)amino)phenyl)decanamide] | progressive decrease in Kv7 opening ability | 0.0261±0.0030 |  |  | 
3 | CCCCCCCCCCCC(=O)Nc1ccc(NCc2ccc(C(F)(F)F)cc2)cc1N [compound 16, N-(2-Amino-4-((4-(trifluoromethyl)benzyl)amino)phenyl)dodecanamide] | progressive decrease in Kv7 opening ability | 0.0084±0.0004 |  |  | 
4 | CC(C)(C)CC(=O)Nc1ccc(NCc2ccc(C(F)(F)F)cc2)cc1N [compound 17, N-(2-Amino-4-((4-(trifluoromethyl)benzyl)amino)phenyl)-3,3-dimethylbutanamide] |  | 0.0512±0.0040 | 79.8 ± 4.2% | Yes | 
5 | Nc1cc(NCc2ccc(C(F)(F)F)cc2)ccc1NC(=O)C1CC1 [compound 18, N-(2-Amino-4-((4-(trifluoromethyl)benzyl)amino)phenyl)cyclopropanecarboxamide] |  | 0.0346±0.0078 |  |  | 
6 | Nc1cc(NCc2ccc(C(F)(F)F)cc2)ccc1NC(=O)CCC1CCCCC1 [compound 19, N-(2-Amino-4-((4-(trifluoromethyl)benzyl)amino)phenyl)-3-cyclohexylpropanamide] |  | 0.0452±0.0077 | 64.8 ± 0.9% | Yes | 
7 | CC(C)(C)CC(=O)Nc1ccc(NCc2ccc(C(F)(F)F)cc2)cc1N1CCCC1 [compound 23, 3,3-Dimethyl-n-(2-(pyrrolidin-1-yl)-4-((4-(trifluoromethyl)benzyl)amino)phenyl)butanamide] | comparable to that of the reference compound 17 | 0.0772±0.0036 | 97.7± 1.0% | inability of compounds 23 and 24 to form dimers and No | enhanced degradation when compared to retigabine
8 | CC(C)(C)CC(=O)Nc1ccc(NCc2ccc(C(F)(F)F)cc2)cc1N1CCCCC1 [compound 24, 3,3-Dimethyl-N-(2-(piperidin-1-yl)-4-((4-(trifluoromethyl)benzyl)amino)phenyl)butanamide] | comparable to that of the reference compound 17 | 0.0591±0.0043 | 79.8 ± 4.2% | inability of compounds 23 and 24 to form dimers and No | enhanced degradation when compared to retigabine
9 | CCCCCCC(=O)Nc1ccc(NCCc2ccc(F)cc2)cc1N [compound 42, N-(2-Amino-4-((4-fluorophenethyl)amino)phenyl)heptanamide] | complete loss of activity | 0.0098±0.0010 |  |  | 
10 | CCCCCCC(=O)Nc1ccc(NCc2ccccn2)cc1N [compound 47, N-(2-Amino-4-((pyridin-2-ylmethyl)amino)phenyl)heptanamide] | complete loss of activity | 0.0071±0.0004 |  |  | 
11 | CC(C)(C)CC(=O)Nc1ccc(CCc2ccc(C(F)(F)F)cc2)cc1N [compound 68, N-(2-Amino-4-(4-(trifluoromethyl)phenethyl)phenyl)-3,3-dimethylbutanamide] | failed to activate Kv7.2/ Kv7.3 channels | 0.0073±0.0005 |  |  | 
12 | N-(2-Amino-4-(4-(trifluoromethyl)phenethyl)phenyl)heptanamide [compound 67] | failed to activate Kv7.2/ Kv7.3 channels | 0.0087±0.0002 |  |  | 

Continued, in another order:

Row | Kv7 opening activity (in words) [1] | Slope of the fluorescent signal at 10 μM [1] | % Degradation (3h, UV) [2] | Dimers Formation [2] | Compound | Photodegradation (in words) [2]
13 |  | 0.0443±0.0049 | 30.6 ± 2.2% | Yes | CCCCCCC(=O)Nc1ccc(NCc2ccc(C(F)(F)F)cc2)cc1N [compound 13, N-(2-Amino-4-((4-(trifluoromethyl)benzyl)amino)phenyl)heptanamide] | 
14 |  | 0.0563±0.0039 | 73.2±0.4% | Yes | CCCCCCCC(=O)Nc1ccc(NCc2ccc(C(F)(F)F)cc2)cc1N [compound 14, N-(2-Amino-4-((4-(trifluoromethyl)benzyl)amino)phenyl)octanamide] | 
15 | complete loss of activity | 0.0062±0.0005 |  |  | COCCOCC(=O)Nc1ccc(NCc2ccc(C(F)(F)F)cc2)cc1N [compound 20, N-(2-Amino-4-((4-(trifluoromethyl)benzyl)amino)phenyl)-2-(2-methoxyethoxy)acetamide] | 
16 | did not improve activity | 0.0363±0.0052 |  |  | CCCCCCC(=O)Nc1ccc(N(CCC)Cc2ccc(C(F)(F)F)cc2)cc1N [compound 27, N-(2-Amino-4-(propyl(4-(trifluoromethyl)benzyl)amino)phenyl)heptanamide] | 
17 | markedly reduced activity | 0.0138±0.0024 |  |  | CCCCCCC(=O)Nc1ccc(N(Cc2ccc(C(F)(F)F)cc2)C(C)=O)cc1N [compound 28, N-(2-Amino-4-(N-(4-(trifluoromethyl)benzyl)acetamido)phenyl)heptanamide] | 
18 | failed to activate Kv7.2/ Kv7.3 channels | 0.0057±0.0005 |  |  | CCCCCCC(=O)Nc1ccc(OCc2ccc(C(F)(F)F)cc2)cc1N [compound 31, N-(2-Amino-4-((4-(trifluoromethyl)benzyl)oxy)phenyl)heptanamide] | 
19 | complete loss of activity | 0.0063±0.0002 |  |  | CCCCCCC(=O)Nc1ccc(NCc2ccncc2)cc1N [compound 51, N-(2-Amino-4-((pyridin-4-ylmethyl)amino)phenyl)heptanamide] | 
20 | complete loss of activity | 0.0068±0.0003 |  |  | CCCCCCC(=O)Nc1ccc(NCc2ccc(O)cc2)cc1N [compound 57, N-(2-Amino-4-((4-hydroxybenzyl)amino)phenyl)heptanamide] | 
21 | similar | 0.0345±0.0026 |  |  | CCCCCCC(=O)Nc1ccc(NCc2ccc(C(F)(F)F)cc2)c(F)c1N [compound 59, N-(2-Amino-3-fluoro-4-((4-(trifluoromethyl)benzyl)amino)phenyl)heptanamide] | 
22 | complete loss of activity | 0.0066±0.0006 |  |  | CCCCCCNC(=O)c1ccc(NCc2ccc(C(F)(F)F)cc2)cc1N [compound 71, 2-Amino-N-hexyl-4-((4-(trifluoromethyl)benzyl)amino)benzamide] | 
